Test system: MCF7 cells
Assay: Mammosphere formation in MCF7 cells (rotenone-induced oxidative stress)
Assay type: cell-based, human
Description: Investigation of the mechanism of tumorigenesis may be conducted by transduction of MCF7 cells with c-Myc, H-Ras, or both, and then subjecting the cell lines to phenotypic characterization, such as mammosphere formation. For the mammosphere formation assay inventors employed, a single suspension of MCF7 cells was prepared using enzymatic (lx Trypsin-EDTA, Sigma Aldrich) and manual disaggregation with a 25-gauge needle. Cells were plated at a density of 500 cells/cm^2 in a mammosphere medium (DMEM-F12/B27/20-ng/mlEGF/PenStrep) in non-adherent conditions, in culture dishes coated with 2-hydroxyethylmethacrylate (poly-HEMA, Sigma). Cells were grown for 5 days and maintained in a humidified incubator at 37° C. at an atmospheric pressure in 5% (v/v) carbon dioxide/air. After 5 days in culture, spheres >50 μm were counted using an eye-piece graticule, and the percentage of cells plated which formed spheres was calculated and is referred to as percent mammosphere formation, normalized to vehicle-alone treated controls. Mammosphere assays were performed in triplicate and repeated three times independently.
The inventors hypothesized that c-Myc induces “stemness” of CSCs in part by driving and managing the onset of mitochondrial oxidative stress. To test this hypothesis, inventors used a pharmacological approach to stimulate oxidative stress. Rotenone is a naturally occurring isoflavone that behaves as an inhibitor of complex I and strongly induces mitochondrial oxidative stress. During rotenone treatment, mitochondrial complexes I and III are the major sites of electron leakage, resulting in increased superoxide production. The inventors treated MCF7 cells with increasing concentrations of Rotenone.
To further validate that the effects of low-dose Rotenone were due to oxidative stress, the inventors tested the effects of a mitochondrial-specific antioxidant Mito-tempo. Mito-tempo functions as a reactive oxygen species (ROS) scavenger by targeting superoxide anions generated in mitochondria.

Structure (SMILES) | effect on mammosphere formation (higher dose Rotenone, MCF7 cells, FIG. 5) | stimulation of mammosphere formation (low-dose Rotenone, MCF7 cells, FIG. 5) [fold] | effect on rotenone-stimulated mammosphere formation (MCF7 mammospheres pretreated with rotenone, FIG. 6)
C=C(C)[C@H]1Cc2c(ccc3c2O[C@@H]2COc4cc(OC)c(OC)cc4[C@@H]2C3=O)O1 [Rotenone] | inhibited mammosphere formation | 1.6 to 1.8 | 
CC1(C)CC(NC(=O)C[P+](c2ccccc2)(c2ccccc2)c2ccccc2)CC(C)(C)N1[O] [Mito-tempo] |  |  | inhibited the stimulatory effects of rotenone

Source: patent publication US11561227B2, “Anti-mitochondrial inhibitors for oncogenic Ras and Myc” (LUNELLA BIOTECH, INC., priority 2017, dated 2023)
